Results: ChEMBL document CHEMBL5247643, “Discovery and Characterization of BAY-805, a Potent and Selective Inhibitor of Ubiquitin-Specific Protease USP21” (J Med Chem, 2023)
Activity calls are given as the source filed them. The rule behind the calls is not given here.

How the values were obtained:
[1] = molecular target: Ubiquitin carboxyl-terminal hydrolase 7 (Homo sapiens) (UniProt Q93009); experiment: Inhibition of human USP7 using ubiquitin rhodamine 110 as substrate at 10 to 50 uM by fluorometric assay; conditions: dose 10-50 µM
[2] = tested on: MDA-MB-231; experiment: Antiproliferative activity against human MDA-MB-231 cells assessed as reduction in cell viability up to 30 uM incubated for 72 hrs by CellTiter-Glo luminescent assay; type: functional, cell-based
[3] = molecular target: T1, Ubiquitin carboxyl-terminal hydrolase 8 (Homo sapiens) (UniProt P40818); experiment: Inhibition of human USP8 using ubiquitin rhodamine 110 as substrate at 10 to 50 uM by fluorometric assay; conditions: dose 10-50 µM
T1 sequence (whole entry): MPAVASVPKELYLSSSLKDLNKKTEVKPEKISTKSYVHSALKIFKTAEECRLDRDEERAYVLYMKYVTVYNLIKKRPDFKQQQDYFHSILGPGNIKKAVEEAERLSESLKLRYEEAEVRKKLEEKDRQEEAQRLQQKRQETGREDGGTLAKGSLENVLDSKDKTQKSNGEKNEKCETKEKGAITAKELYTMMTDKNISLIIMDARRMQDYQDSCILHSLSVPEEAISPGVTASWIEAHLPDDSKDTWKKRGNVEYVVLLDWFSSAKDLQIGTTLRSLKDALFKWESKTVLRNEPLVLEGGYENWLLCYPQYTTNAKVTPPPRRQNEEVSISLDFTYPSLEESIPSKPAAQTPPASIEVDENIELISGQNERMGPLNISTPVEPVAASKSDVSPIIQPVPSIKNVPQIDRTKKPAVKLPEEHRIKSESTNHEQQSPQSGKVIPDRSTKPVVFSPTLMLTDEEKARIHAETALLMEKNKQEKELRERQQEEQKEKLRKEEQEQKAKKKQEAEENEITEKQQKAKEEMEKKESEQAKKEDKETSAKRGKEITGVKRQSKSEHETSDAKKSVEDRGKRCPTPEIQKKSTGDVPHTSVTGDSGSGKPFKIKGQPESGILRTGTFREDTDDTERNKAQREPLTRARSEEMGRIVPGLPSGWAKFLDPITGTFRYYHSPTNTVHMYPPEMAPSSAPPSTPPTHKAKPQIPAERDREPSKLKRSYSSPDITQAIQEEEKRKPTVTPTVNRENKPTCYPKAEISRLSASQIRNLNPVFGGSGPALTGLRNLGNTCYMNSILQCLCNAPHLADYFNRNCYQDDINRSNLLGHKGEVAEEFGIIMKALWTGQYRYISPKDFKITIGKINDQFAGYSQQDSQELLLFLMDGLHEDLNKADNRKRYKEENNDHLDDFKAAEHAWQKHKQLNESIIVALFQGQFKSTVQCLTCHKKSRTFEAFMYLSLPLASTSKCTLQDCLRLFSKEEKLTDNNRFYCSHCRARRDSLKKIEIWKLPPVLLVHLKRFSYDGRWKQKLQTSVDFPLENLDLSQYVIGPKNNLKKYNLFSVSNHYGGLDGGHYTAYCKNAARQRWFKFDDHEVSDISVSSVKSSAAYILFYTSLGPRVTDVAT

[4] = molecular target: Ubiquitin carboxyl-terminal hydrolase 9X (Homo sapiens) (UniProt Q93008); experiment: Inhibition of human USP9X using ubiquitin rhodamine 110 as substrate at 10 to 50 uM by fluorometric assay; conditions: dose 10-50 µM
[5] = molecular target: T2, Ubiquitin carboxyl-terminal hydrolase 30 (Homo sapiens) (UniProt Q70CQ3); experiment: Inhibition of human USP30 (57 to 517 residues) expressed in Sf9 cells using ubiquitin rhodamine 110 as substrate assessed as remaining enzyme activity at 10 to 50 uM by fluorometric assay; conditions: dose 10-50 µM
T2 sequence (whole entry): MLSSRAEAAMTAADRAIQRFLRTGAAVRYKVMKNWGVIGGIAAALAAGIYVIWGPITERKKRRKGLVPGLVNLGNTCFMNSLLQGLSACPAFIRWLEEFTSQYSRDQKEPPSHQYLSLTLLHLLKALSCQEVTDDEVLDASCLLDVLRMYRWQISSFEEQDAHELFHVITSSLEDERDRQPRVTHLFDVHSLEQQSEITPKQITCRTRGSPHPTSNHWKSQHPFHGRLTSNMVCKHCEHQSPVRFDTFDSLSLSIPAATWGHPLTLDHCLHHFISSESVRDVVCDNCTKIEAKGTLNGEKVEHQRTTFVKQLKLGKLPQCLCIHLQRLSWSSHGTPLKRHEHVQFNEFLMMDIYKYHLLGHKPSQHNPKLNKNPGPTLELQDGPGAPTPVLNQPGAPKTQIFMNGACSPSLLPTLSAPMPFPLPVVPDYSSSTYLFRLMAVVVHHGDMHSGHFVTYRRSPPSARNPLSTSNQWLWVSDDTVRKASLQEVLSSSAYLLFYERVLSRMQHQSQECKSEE

[6] = molecular target: T3, Ubiquitin carboxyl-terminal hydrolase 21 (Homo sapiens) (UniProt Q9UK80); experiment: Inhibition of human USP21 (209 to 563 residues) expressed in Escherichia coli BL21 (DE3) using ubiquitin rhodamine 110 as substrate assessed as remaining enzyme activity at 10 to 50 uM by fluorometric assay; conditions: dose 10-50 µM
T3 sequence (whole entry): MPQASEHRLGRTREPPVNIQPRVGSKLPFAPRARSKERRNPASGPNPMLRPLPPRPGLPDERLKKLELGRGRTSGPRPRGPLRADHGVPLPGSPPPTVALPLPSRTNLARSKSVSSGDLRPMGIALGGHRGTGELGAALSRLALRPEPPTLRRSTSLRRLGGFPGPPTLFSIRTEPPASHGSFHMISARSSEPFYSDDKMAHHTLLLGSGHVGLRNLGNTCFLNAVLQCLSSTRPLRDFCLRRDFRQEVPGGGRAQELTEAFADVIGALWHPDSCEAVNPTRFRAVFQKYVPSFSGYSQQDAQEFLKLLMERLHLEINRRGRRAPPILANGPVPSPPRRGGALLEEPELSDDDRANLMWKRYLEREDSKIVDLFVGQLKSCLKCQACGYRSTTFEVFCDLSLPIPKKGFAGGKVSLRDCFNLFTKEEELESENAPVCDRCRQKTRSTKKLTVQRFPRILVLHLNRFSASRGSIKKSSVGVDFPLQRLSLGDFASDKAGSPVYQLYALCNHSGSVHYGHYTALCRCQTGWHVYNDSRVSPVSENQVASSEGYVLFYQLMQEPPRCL

Ubiquitin carboxyl-terminal hydrolase 7 (Homo sapiens), sequence (Q93009 whole entry, looked up): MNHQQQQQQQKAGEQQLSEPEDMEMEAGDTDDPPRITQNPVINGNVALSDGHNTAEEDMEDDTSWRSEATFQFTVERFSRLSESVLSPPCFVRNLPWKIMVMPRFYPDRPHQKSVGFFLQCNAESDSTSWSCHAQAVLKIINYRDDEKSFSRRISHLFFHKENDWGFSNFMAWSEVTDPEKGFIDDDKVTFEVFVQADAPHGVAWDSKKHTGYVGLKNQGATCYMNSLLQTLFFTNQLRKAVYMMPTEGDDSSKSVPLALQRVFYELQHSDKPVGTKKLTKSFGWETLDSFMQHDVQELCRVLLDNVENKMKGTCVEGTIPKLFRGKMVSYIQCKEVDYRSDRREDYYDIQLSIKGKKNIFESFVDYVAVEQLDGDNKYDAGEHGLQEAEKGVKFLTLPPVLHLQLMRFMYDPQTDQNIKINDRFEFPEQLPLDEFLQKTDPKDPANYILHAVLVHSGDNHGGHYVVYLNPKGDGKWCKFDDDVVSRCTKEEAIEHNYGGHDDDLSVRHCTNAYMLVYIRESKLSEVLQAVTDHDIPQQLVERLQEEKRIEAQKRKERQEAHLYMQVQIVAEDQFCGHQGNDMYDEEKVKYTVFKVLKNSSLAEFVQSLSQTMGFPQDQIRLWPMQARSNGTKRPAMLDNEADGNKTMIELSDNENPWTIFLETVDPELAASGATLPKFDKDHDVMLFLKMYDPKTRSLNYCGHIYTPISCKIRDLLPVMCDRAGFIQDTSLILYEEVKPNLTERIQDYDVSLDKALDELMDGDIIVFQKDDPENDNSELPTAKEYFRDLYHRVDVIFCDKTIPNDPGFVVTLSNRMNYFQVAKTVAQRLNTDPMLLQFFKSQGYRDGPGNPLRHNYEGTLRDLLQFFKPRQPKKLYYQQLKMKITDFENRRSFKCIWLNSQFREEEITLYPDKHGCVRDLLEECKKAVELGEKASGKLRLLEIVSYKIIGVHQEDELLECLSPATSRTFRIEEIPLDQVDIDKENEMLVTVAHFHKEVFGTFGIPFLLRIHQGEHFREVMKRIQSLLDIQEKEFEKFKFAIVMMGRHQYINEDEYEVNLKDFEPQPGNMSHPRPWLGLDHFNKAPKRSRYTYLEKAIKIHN
Ubiquitin carboxyl-terminal hydrolase 9X (Homo sapiens), sequence (Q93008 whole entry, the tested form may be a part): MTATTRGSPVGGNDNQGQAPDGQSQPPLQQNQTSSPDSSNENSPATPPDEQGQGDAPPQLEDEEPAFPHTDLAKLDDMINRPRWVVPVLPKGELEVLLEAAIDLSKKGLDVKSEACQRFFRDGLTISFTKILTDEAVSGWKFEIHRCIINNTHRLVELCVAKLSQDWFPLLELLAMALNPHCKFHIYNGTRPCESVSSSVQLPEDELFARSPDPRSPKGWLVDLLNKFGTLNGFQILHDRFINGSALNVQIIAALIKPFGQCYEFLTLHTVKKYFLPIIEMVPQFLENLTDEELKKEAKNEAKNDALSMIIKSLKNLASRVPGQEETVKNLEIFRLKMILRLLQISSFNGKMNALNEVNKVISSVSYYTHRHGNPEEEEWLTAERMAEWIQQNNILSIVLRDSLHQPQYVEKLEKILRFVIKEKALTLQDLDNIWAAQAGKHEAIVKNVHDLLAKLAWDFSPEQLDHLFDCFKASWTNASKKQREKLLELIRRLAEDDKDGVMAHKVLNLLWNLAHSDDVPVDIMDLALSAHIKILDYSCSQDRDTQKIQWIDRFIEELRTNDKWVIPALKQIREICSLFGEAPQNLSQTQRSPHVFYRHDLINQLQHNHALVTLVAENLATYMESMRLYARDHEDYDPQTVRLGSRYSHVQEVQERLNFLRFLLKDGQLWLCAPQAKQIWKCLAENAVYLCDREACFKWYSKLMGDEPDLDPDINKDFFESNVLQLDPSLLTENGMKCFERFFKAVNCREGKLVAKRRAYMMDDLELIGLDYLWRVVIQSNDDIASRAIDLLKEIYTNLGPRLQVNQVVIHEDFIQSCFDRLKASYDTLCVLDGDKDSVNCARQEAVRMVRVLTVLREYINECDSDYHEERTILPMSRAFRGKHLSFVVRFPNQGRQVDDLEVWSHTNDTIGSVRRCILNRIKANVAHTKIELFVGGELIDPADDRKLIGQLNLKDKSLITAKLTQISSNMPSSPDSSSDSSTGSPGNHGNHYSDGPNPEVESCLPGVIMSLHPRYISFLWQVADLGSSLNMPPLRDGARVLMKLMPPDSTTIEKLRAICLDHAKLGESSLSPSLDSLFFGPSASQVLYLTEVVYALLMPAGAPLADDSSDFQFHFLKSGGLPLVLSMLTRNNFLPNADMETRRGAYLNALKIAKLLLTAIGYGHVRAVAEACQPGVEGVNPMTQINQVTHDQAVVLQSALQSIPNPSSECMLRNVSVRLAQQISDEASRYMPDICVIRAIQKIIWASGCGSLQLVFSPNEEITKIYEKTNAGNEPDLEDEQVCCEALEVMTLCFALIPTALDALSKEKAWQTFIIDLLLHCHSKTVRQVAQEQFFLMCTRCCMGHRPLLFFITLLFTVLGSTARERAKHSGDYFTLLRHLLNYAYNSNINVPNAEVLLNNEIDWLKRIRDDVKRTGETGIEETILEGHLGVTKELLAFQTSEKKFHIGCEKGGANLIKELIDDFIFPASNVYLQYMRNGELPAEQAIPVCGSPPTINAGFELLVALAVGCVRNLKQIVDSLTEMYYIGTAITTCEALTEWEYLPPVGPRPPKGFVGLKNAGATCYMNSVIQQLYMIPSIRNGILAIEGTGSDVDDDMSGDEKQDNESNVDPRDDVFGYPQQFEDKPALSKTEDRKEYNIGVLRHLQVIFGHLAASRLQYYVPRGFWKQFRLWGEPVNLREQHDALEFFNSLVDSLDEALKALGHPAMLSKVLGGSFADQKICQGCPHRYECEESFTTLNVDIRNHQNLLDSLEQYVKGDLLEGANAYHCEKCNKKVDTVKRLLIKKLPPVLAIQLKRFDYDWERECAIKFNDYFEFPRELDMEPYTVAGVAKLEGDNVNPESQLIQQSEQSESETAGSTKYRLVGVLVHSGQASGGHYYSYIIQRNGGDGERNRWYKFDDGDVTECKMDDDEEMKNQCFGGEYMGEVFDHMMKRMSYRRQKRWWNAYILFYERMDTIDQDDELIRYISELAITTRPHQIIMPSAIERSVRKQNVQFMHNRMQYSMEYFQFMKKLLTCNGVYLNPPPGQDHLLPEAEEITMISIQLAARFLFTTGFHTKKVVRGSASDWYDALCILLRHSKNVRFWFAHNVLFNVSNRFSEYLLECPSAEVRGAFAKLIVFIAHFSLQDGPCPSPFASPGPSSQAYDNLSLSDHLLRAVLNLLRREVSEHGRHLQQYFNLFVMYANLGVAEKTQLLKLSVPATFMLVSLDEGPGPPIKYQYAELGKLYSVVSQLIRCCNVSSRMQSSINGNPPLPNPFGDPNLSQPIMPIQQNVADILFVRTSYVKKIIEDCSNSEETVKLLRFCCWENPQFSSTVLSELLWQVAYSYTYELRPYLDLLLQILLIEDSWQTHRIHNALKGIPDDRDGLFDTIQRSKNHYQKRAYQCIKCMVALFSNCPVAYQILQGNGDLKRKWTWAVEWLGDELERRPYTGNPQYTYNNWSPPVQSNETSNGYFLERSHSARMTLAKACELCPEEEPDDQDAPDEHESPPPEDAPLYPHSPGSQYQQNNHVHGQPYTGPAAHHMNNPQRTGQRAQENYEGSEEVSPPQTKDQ

| inhibition [1] | inhibition [3] | inhibition [4] | Activity [5] [%] | Activity [6] [%] | SMILES | Activity [2] |
| --- | --- | --- | --- | --- | --- | --- |
| inactive | inactive | inactive | – | – | CC(C)C[C@H](NC(=O)C1(C(F)(F)F)CCCCC1)C(=O)Nc1nnc(Cc2ccc(C#N)cc2)s1 | inactive |
| – | – | – | < 50 | < 50 | CC(NC(=O)C1CCCC1)C(=O)Nc1nnc(Cc2ccc([N+](=O)[O-])cc2)s1 (racemic) | – |
